According to ChEMBL document CHEMBL1201862, “PubChem BioAssay data set” (2004):
Values belong to the molecule of their own block, whether it stands above or below them. Calls of active or inactive are those of the source.

Legend:
Type in all cases: functional
[1] = biological target: High affinity nerve growth factor receptor (Homo sapiens, UniProt P04629);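 further: NTRK1 tested as one member of a kinome-wide profiling panel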
[2] = biological target: Serine/threonine-protein kinase pim-2 (Homo sapiens, UniProt Q9P1W9);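 further: value comes from a broad kinase panel profiling study in which PIM2 was one of the panel members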
[3] = biological target: MAP/microtubule affinity-regulating kinase 3 (Homo sapiens, UniProt P27448);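 further: MARK3 affinity measured as one member of a kinome panel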
[4] = biological target: Cyclin-dependent kinase 1 (Homo sapiens, UniProt P06493);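 further: Kinome-wide panel profiling, with the target listed as panel member CDC2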
[5] = biological target: T1, Sentrin-specific protease 7 (Homo sapiens, UniProt Q9BQF6);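 further: Luminescence-based dose-response confirmation of ultra-high-throughput screening hits, measuring inhibition of SENP7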
T1 sequence (Q9BQF6 whole entry): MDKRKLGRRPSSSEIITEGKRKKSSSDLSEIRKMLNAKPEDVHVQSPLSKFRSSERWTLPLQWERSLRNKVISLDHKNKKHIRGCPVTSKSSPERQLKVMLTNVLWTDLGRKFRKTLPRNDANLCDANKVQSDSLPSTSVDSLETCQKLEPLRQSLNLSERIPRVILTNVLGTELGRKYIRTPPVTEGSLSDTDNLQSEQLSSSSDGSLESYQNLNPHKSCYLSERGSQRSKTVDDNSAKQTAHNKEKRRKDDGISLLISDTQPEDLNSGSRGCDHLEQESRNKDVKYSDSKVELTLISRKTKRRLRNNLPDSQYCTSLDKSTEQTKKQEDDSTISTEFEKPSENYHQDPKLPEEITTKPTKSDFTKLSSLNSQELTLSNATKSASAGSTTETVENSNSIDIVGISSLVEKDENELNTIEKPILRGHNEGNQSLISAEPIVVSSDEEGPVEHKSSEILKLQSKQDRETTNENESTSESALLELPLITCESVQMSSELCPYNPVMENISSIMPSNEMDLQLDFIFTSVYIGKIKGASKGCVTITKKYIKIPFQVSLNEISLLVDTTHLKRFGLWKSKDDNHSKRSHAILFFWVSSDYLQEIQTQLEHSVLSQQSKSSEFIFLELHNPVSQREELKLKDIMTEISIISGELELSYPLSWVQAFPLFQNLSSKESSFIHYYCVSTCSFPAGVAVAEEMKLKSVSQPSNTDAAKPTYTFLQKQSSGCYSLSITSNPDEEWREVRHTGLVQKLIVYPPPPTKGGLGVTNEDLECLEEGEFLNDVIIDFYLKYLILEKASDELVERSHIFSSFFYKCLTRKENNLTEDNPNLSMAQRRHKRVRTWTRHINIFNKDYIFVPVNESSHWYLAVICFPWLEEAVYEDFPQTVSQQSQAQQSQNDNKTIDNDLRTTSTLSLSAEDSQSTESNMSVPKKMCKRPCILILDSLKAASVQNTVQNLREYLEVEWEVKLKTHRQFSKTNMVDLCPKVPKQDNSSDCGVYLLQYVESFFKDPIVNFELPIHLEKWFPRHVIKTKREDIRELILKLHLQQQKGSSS

Sequence of High affinity nerve growth factor receptor (P04629 whole entry): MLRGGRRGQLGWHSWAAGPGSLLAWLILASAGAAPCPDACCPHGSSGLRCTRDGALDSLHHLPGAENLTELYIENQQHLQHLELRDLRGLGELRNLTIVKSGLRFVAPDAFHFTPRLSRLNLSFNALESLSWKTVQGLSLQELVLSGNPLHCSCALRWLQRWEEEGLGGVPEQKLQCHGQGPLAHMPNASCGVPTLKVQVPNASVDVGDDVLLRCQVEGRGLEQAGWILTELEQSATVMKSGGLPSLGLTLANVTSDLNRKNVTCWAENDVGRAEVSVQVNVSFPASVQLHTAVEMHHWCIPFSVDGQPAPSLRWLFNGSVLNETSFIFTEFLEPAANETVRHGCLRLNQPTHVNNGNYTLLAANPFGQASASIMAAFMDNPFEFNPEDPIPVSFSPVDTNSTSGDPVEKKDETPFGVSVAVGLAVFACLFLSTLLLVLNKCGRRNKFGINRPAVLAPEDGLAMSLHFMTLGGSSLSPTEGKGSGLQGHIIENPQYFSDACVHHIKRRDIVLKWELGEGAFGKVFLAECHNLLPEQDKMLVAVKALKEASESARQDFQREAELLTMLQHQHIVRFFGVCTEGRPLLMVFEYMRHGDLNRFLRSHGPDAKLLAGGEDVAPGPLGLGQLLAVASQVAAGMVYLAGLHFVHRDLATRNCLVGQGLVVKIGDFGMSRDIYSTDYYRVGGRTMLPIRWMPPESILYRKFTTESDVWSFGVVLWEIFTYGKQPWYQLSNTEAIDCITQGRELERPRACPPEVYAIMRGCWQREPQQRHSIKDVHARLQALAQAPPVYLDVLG
Sequence of MAP/microtubule affinity-regulating kinase 3 (P27448 whole entry): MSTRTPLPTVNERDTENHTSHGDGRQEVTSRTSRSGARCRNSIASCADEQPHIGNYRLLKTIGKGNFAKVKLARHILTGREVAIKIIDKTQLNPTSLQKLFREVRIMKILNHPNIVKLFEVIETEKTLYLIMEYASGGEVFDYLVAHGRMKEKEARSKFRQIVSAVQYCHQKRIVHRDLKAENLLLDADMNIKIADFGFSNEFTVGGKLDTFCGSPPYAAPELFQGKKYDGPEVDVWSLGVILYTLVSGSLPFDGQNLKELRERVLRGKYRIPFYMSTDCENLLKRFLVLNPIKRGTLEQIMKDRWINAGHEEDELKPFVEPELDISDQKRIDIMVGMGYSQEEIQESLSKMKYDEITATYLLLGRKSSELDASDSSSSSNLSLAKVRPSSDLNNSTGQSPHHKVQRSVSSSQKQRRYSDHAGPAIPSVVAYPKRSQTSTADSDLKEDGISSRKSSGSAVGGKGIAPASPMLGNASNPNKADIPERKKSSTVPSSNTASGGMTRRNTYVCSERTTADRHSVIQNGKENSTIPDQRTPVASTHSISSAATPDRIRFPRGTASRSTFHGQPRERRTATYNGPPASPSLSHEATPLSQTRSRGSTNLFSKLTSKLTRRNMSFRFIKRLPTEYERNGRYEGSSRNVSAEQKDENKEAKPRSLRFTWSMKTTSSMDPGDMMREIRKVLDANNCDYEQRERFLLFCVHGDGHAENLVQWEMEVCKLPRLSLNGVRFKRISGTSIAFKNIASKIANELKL
Sequence of Cyclin-dependent kinase 1 (P06493 whole entry): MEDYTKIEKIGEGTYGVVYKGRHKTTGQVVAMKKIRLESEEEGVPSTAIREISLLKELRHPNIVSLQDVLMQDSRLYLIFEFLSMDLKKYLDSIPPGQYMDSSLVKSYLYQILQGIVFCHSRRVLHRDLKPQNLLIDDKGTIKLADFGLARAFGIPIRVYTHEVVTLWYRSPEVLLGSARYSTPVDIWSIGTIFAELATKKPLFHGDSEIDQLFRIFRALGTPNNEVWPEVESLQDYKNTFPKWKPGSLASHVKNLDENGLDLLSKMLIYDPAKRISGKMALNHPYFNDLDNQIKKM
Sequence of Serine/threonine-protein kinase pim-2 (Q9P1W9 whole entry): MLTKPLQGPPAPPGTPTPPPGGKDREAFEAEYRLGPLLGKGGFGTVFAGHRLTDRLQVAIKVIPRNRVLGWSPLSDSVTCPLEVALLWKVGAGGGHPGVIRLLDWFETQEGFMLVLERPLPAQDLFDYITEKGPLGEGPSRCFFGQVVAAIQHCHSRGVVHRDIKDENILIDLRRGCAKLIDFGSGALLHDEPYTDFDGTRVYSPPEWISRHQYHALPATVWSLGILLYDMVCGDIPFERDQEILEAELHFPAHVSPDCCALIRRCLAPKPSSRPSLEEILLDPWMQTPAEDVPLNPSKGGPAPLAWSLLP

Ki [1]: 79400 nM (active)
SMILES: CC(C)(O)c1cn(-c2ccc3[nH]ncc3c2)nn1

Ki [2]: 501 nM (active) | Ki [3]: 50.1 nM (active) | Ki [4]: 6.31 nM (active)
SMILES: NC1CCC(Nc2nccc(-c3c[nH]c4ncccc34)n2)CC1 (stereo not given)

SMILES: O=C1C2=[N+]([O-])[C@H]3CCCC[C@H]3[N+]([O-])=C2c2ccccc21
IC50 [5]: 16800 nM (active)
